Like-named read-outs stand apart in the source and are kept apart here.
How the values were obtained:
[1] = Cytotoxicity Determination (CCK-8, without addition of virus); type: cell-based; details: human
Method in brief: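 Cytotoxicity was measured by CCK-8 after 3-4 hours at 37 °C, following 5 days of uninfected exposure at 37 °C and 5% CO2. Compounds ran as duplicate 7-point 1/2 dilutions starting at 100 μM, with 1% final DMSO. HEp-2 cells had been plated at 1,500/well the day before.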

[2] = system: RSV replicon; assay: microbe, parasite or virus in culture; type: cell-based; details: human respiratory syncytial virus, read-out: EC50, the concentration of the drug required for reducing RSV replicon RNA by 50%
[3] = system: Respiratory Syncytial Virus (RSV) long strain; assay: microbe, parasite or virus in culture; type: cell-based; details: human respiratory syncytial virus, Tables A and B list compounds by EC50 band
Method in brief: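 CPE-reduction format: viability measured colorimetrically with CCK-8 (450 nm, 630 nm reference) after 3-4 h, following 5-day infection at 37 °C, 5% CO2. Cells were HEp-2; inoculum 100 TCID50/well; duplicate 9-point 1/3 series starting at 100 μM or 1 μM.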

[4] = molecular target: recombinant RSV complex (Human respiratory syncytial virus A, UniProt P28887); assay: RSV Polymerase Inhibition Assay; type: biochemical
Chain of recombinant RSV complex (P28887 whole entry): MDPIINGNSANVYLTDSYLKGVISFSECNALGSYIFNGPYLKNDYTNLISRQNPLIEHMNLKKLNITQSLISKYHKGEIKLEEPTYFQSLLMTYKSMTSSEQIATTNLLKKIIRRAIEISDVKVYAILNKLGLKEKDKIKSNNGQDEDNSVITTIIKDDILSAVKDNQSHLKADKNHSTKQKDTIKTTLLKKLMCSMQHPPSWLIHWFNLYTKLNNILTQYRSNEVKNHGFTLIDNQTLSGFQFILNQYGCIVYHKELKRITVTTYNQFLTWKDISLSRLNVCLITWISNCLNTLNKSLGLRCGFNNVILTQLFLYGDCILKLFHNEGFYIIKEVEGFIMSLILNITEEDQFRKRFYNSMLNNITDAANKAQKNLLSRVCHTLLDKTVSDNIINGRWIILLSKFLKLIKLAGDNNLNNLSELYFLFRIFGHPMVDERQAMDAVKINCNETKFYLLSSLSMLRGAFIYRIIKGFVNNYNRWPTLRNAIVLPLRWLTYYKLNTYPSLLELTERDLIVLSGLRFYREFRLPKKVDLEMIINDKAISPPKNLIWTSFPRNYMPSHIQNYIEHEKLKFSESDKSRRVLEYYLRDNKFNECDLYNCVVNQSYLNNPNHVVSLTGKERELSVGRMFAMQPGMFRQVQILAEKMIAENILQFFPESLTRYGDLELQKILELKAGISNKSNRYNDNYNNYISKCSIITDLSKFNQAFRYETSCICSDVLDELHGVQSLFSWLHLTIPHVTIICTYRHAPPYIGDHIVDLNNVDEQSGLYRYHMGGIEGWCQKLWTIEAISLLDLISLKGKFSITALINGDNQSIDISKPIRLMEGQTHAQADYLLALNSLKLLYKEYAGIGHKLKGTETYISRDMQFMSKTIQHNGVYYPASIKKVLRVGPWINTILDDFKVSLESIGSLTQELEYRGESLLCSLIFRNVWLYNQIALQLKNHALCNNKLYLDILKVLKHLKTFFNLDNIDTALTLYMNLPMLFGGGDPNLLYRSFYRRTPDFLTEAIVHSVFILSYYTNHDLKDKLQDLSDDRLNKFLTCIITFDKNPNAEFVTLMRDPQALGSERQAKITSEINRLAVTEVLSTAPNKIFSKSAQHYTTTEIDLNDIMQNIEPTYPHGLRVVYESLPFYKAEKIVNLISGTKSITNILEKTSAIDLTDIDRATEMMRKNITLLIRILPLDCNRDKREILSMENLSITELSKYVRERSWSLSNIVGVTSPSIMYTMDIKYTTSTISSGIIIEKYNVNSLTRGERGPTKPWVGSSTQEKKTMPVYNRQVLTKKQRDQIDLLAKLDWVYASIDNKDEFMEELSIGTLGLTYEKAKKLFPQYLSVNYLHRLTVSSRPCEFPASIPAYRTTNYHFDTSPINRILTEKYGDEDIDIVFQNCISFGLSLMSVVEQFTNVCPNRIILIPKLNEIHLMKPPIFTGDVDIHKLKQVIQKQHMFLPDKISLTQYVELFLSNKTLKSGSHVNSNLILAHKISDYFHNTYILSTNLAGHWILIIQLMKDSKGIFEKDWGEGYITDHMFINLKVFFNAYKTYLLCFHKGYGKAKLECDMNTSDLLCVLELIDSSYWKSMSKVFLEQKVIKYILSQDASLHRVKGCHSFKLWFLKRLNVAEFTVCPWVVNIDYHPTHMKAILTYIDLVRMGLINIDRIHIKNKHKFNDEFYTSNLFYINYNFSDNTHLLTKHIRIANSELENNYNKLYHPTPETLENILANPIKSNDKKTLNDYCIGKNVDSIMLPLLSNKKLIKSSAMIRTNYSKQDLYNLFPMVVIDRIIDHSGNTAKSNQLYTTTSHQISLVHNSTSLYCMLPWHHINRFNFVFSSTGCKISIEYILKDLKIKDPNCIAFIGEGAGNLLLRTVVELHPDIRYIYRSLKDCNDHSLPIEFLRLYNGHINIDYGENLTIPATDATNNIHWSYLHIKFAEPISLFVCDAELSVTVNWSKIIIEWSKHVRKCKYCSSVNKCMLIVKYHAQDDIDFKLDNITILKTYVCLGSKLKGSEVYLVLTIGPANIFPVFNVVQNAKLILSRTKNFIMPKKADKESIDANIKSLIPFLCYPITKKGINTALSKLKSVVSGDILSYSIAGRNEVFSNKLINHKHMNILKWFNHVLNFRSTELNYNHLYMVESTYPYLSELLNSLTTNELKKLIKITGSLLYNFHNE
Chain of recombinant RSV complex (P03421 whole entry, further chain): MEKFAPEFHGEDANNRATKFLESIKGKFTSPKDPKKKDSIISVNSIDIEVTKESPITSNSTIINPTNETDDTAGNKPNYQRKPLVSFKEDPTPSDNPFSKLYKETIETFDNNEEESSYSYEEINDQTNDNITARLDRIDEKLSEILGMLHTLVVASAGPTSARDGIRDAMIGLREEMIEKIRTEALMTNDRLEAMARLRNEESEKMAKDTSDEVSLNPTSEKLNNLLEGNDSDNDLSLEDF
Method in brief: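 Inhibition measured as reduced incorporation of radiolabel into RNA products, detected by scintillation counting. Reactions: recombinant RSV complex (10 nM), RNA oligonucleotides, Tris-HCl pH 7.5, 6 mM MgCl2, inhibitor titration, 2 h at 30 °C, EDTA stop.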

[5] = 50% cytotoxicity concentration (CC50)
[6] = HEp-2, 120 h, read-out: 50% effective concentration (EC50), HEp-2 cells infected with RSV long strain, 5 days, CCK-8 readout
[7] = 120 h, read-out: 50% effective concentration (EC50), HEp-2 cells infected with RSV long strain, 5 days, CCK-8 readout

Structure (SMILES)	CC50 at 5 days [1, 5]	EC50 [2]	EC50 [3, 6]	IC50 [4]	CC50 at 5 days ([1]; no virus, 5 days, CCK-8 readout, Tables C and D list compounds by CC50 band)	EC50 [3, 7]
COc1ccc(C(O)(CNC(=O)c2ccc(OCCO)c(Cl)c2)C2CC2)nc1-c1ccc(F)c(Cl)c1 (centres unmarked) [Compound 425]	10 to 100 µM	< 1000 nM	< 1000 nM	< 1000 nM		
COc1cc(C(=O)NCC(O)(c2ccc(OC)c(-c3ccc(F)c(Cl)c3)n2)C2CC2)ccc1Cn1cncn1 (centres unmarked) [Compound 434]	10 to 100 µM	< 1000 nM	< 1000 nM	< 1000 nM		
COc1cc(C(=O)NCC(O)(c2ccc(OC)c(-c3ccc(F)c(Cl)c3)n2)C(F)F)ccc1OCCO (centres unmarked) [Compound 436]	10 to 100 µM	< 1000 nM	< 1000 nM	< 1000 nM		
COc1cc(C(=O)NCC(O)(c2ccc(OC)c(-c3ccc(F)c(Cl)c3)n2)C2CC2)ccc1OC(C)(F)F (centres unmarked) [Compound 437]	10 to 100 µM	< 1000 nM	1000 to 50000 nM	< 1000 nM		
COc1cc(C(=O)NCC(O)(c2ccc(OC)c(-c3ccc(F)c(Cl)c3)n2)C2CC2)ccc1Cn1ccnc1 (centres unmarked) [Compound 438]	10 to 100 µM	1000 to 50000 nM	1000 to 50000 nM	< 10000 nM		
COc1cc(C(=O)NCC(O)(c2ccc(OC)c(-c3ccc(F)c(Br)c3)n2)C(F)(F)F)ccc1OCC(N)=O (centres unmarked) [Compound 443]	10 to 100 µM	< 1000 nM	< 1000 nM	< 1000 nM		
COc1cc(C(=O)NCC(O)(c2ccc(OC)c(-c3ccc(F)c(Cl)c3)n2)C(F)F)ccc1OC[C@@H](C)O (some centres unmarked) [Compound 444]	10 to 100 µM	< 1000 nM	< 1000 nM	< 1000 nM		
COc1cc(C(=O)NCC(O)(c2ccc(OC)c(-c3ccc(F)c(Cl)c3)n2)C(F)F)ccc1OC1CC1 (centres unmarked) [Compound 445]	10 to 100 µM	< 1000 nM	< 1000 nM	< 1000 nM		
CNc1cc(-c2ccc(F)c(Cl)c2)nc(C(O)(CNC(=O)c2ccc(OC3CC3)c(OC)c2)C(F)(F)F)c1 (centres unmarked) [Compound 448]	10 to 100 µM	< 1000 nM	< 1000 nM	< 1000 nM		
COc1ccc(C(O)(CO)CNC(=O)c2ccc(OC3CCNC3=O)c(Cl)c2)nc1-c1ccc(F)c(Cl)c1 (centres unmarked) [Compound 452]	10 to 100 µM	< 1000 nM	< 1000 nM	< 1000 nM		
COc1ccc(C(O)(CO)CNC(=O)c2cc(OC)c3ncccc3c2)nc1-c1ccc(F)c(Cl)c1 (centres unmarked) [Compound 453]	10 to 100 µM	< 1000 nM	< 1000 nM	< 1000 nM		
COc1cc(C(=O)NCC(O)(c2ccc(OC)c(-c3ccc(F)c(Cl)c3)n2)C(C)O)ccc1OC1CC1 (centres unmarked) [Compound 454]	10 to 100 µM	< 1000 nM	< 1000 nM	< 1000 nM		
COc1cc(C(=O)NCC(O)(c2cc(C(C)N)cc(-c3ccc(F)c(Cl)c3)n2)C(F)(F)F)ccc1OC1CC1 (centres unmarked) [Compound 459]		< 1000 nM	< 1000 nM	< 1000 nM	10 to 100 µM	
COc1cc(C(=O)NCC(C)(O)c2cc(C(C)(C)N)cc(-c3ccc(F)c(Cl)c3)n2)ccc1OC1CC1 (centres unmarked) [Compound 460]	10 to 100 µM	< 1000 nM		< 1000 nM		< 1000 nM
COc1cc(C(=O)NCC(O)(CC2CNC2)c2ccc(OC)c(-c3ccc(F)c(Cl)c3)n2)ccc1OC1CC1 (centres unmarked) [Compound 461]	10 to 100 µM	1000 to 50000 nM	< 1000 nM	< 1000 nM		
COc1cc(C(=O)NCC(O)(CN2CCC2)c2ccc(OC)c(-c3ccc(F)c(Cl)c3)n2)ccc1OC1CC1 (centres unmarked) [Compound 462]	10 to 100 µM	< 1000 nM	< 1000 nM	< 1000 nM		
CNC(C)c1cc(-c2ccc(F)c(Cl)c2)nc(C(O)(CNC(=O)c2ccc(OC3CC3)c(OC)c2)C(F)(F)F)c1 (centres unmarked) [Compound 466]	10 to 100 µM	< 1000 nM	< 1000 nM	< 1000 nM		
COc1cc(C(=O)NCC(C)(O)c2cc(C(C)(C)C)cc(-c3ccc(F)c(Cl)c3)n2)ccc1OCCO (centres unmarked) [Compound 467]	10 to 100 µM	< 1000 nM	< 1000 nM	< 1000 nM		
COc1cc(C(=O)NCC(O)(c2ccc(OC)c(-c3ccc(F)c(Cl)c3)n2)C(F)(F)F)ccc1OC1CC(F)C1 (centres unmarked) [Compound 470]	> 100 µM	< 1000 nM		< 1000 nM		< 1000 nM

Structure (SMILES)	CC50 at 5 days [1, 5]	EC50 [2]	EC50 [3, 6]	IC50 [4]	CC50 at 5 days ([1]; no virus, 5 days, CCK-8 readout, Tables C and D list compounds by CC50 band)	EC50 [3, 7]
COc1cc(C(=O)NCC(O)(c2cc3c(c(-c4ccc(F)c(Cl)c4)n2)OCC3(C)N)C(F)(F)F)ccc1OC1CC1 (centres unmarked) [Compound 483]	10 to 100 µM	< 1000 nM	< 1000 nM	< 1000 nM		
CNC(C)(C)c1cc(-c2ccc(F)c(Cl)c2)nc(C(O)(CNC(=O)c2ccc(O[C@H]3CCNC3=O)c(OC)c2)C(F)(F)F)c1 (some centres unmarked) [Compound 485]	10 to 100 µM	< 1000 nM	< 1000 nM	< 1000 nM		
CNC(C)(C)c1cc(-c2ccc(F)c(Cl)c2)nc(C(O)(CNC(=O)c2ccc(OC[C@@H](C)O)c(OC)c2)C(F)(F)F)c1 (some centres unmarked) [Compound 486]	10 to 100 µM	< 1000 nM	< 1000 nM	< 1000 nM		
CNC(C)(C)c1cc(-c2ccc(F)c(Cl)c2)nc(C(O)(CNC(=O)c2ccc(OCC(N)=O)c(OC)c2)C(F)(F)F)c1 (centres unmarked) [Compound 487]	10 to 100 µM	< 1000 nM	< 1000 nM	< 1000 nM		
CNC(C)(C)c1cc(-c2ccc(F)c(Cl)c2)nc(C(O)(CNC(=O)c2cc(OC)c3ncccc3c2)C(F)(F)F)c1 (centres unmarked) [Compound 488]	10 to 100 µM	< 1000 nM	< 1000 nM	< 1000 nM		
COc1cc(C(=O)NCC(O)(c2cc(C(C)(C)N)cc(-c3ccc(F)c(Cl)c3)n2)C(F)(F)F)ccc1OCCO (centres unmarked) [Compound 489]	10 to 100 µM	< 1000 nM	< 1000 nM	< 1000 nM		
COc1cc(C(=O)NCC(O)(c2cc(C(C)(C)N)cc(-c3ccc(F)c(Cl)c3)n2)C(F)(F)F)ccc1OCCOC(=O)C(C)C (centres unmarked) [Compound 490]	10 to 100 µM	< 1000 nM	< 1000 nM	< 10000 nM		
CNC(C)(C)c1cc(-c2ccc(F)c(Cl)c2)nc(C(O)(CNC(=O)c2ccc(OCCO)c(OC)c2)C(F)(F)F)c1 (centres unmarked) [Compound 491]	10 to 100 µM	< 1000 nM	< 1000 nM	< 1000 nM		
COc1cc(C(=O)NC[C@](O)(c2cc(C(C)(C)N)cc(-c3ccc(F)cc3)n2)C(F)(F)F)ccc1OC1CC1 [Compound 496]	10 to 100 µM	< 1000 nM	< 1000 nM	< 1000 nM		
CCOc1ccc(C(=O)NCC(O)(c2cc3c(c(-c4ccc(F)c(Cl)c4)n2)OCC3(C)N)C(F)(F)F)cc1OC (centres unmarked) [Compound 498]	10 to 100 µM	< 1000 nM	< 1000 nM	< 1000 nM		
COC(=O)CNC(C)(C)c1cc(-c2ccc(F)c(Cl)c2)nc(C(O)(CNC(=O)c2ccc(OC3CC3)c(OC)c2)C(F)(F)F)c1 (centres unmarked) [Compound 500]	10 to 100 µM	< 1000 nM		< 1000 nM		< 1000 nM
COc1cc(C(=O)NCC(O)(c2cc(C(C)(C)NCCO)cc(-c3ccc(F)c(Cl)c3)n2)C(F)(F)F)ccc1OC1CC1 (centres unmarked) [Compound 502]	10 to 100 µM	< 1000 nM	< 1000 nM	< 1000 nM		
COc1cc(C(=O)NCC(N)(c2ccc(OC)c(-c3ccc(F)c(Cl)c3)n2)C(F)(F)F)ccc1OC1CC1 (centres unmarked) [Compound 503]	10 to 100 µM	< 1000 nM	< 1000 nM	< 1000 nM		
COc1cc(C(=O)NCC(N)(c2cc(C(C)(C)N)cc(-c3ccc(F)c(Cl)c3)n2)C(F)(F)F)ccc1OC1CC1 (centres unmarked) [Compound 504]	10 to 100 µM	< 1000 nM	< 1000 nM	< 1000 nM		
COc1cc(C(=O)NCC(O)(c2cc(C3(C)CCNC3)cc(-c3ccc(F)cc3)n2)C(F)(F)F)ccc1OC1CC1 (centres unmarked) [Compound 507]	10 to 100 µM	< 1000 nM	< 1000 nM	< 1000 nM		
COc1cc(C(=O)NCC(O)(c2ccc(CN)c(-c3ccc(F)cc3)n2)C(F)(F)F)ccc1OC1CC1 (centres unmarked) [Compound 514]	10 to 100 µM	< 1000 nM	< 1000 nM	< 1000 nM		
COc1cc(C(=O)NCC(O)(c2cc(C(C)(C)NCC(=O)O)cc(-c3ccc(F)c(Cl)c3)n2)C(F)(F)F)ccc1OC1CC1 (centres unmarked) [Compound 515]	10 to 100 µM	< 1000 nM	< 1000 nM	< 1000 nM		
COc1cc(C(=O)NCC(O)(c2cc(C(C)(C)NC(N)=O)cc(-c3ccc(F)c(Cl)c3)n2)C(F)(F)F)ccc1OC1CC1 (centres unmarked) [Compound 516]	10 to 100 µM	< 1000 nM	< 1000 nM	< 1000 nM		
COc1cc(C(=O)NCC(O)(c2cc3c(c(-c4ccc(F)c(Cl)c4)n2)OCC3N)C(F)(F)F)ccc1OC1CC1 (centres unmarked) [Compound 525]	10 to 100 µM	< 1000 nM	< 1000 nM	< 1000 nM		

Reference: patent US11021444B2, “Antiviral compounds” (priority 2013, dated 2021)
